This is an account of results in PubChem BioAssay AID602264 (The Scripps Research Institute Molecular Screening Center, 2012).

Broadly, the EC50 is the concentration giving half of the maximal effect.

Active and inactive are the calls of the source. The rule behind the calls is not given here. Where only a bound is given, the exact number is not on record here.

Sequence of Mu-type opioid receptor (Homo sapiens) + Delta-type opioid receptor (Homo sapiens) (P35372 whole entry, looked up): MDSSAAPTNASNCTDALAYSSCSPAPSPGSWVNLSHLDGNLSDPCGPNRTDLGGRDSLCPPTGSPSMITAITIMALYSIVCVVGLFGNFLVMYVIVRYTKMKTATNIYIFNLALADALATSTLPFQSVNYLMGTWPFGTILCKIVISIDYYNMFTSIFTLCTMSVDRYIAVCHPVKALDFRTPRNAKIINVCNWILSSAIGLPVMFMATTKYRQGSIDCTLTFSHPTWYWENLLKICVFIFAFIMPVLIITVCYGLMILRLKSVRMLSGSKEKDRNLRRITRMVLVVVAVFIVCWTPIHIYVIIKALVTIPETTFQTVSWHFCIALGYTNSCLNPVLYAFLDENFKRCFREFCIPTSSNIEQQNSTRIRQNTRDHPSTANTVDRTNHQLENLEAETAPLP
Sequence of Mu-type opioid receptor (Homo sapiens) + Delta-type opioid receptor (Homo sapiens) (P41143 whole entry, looked up): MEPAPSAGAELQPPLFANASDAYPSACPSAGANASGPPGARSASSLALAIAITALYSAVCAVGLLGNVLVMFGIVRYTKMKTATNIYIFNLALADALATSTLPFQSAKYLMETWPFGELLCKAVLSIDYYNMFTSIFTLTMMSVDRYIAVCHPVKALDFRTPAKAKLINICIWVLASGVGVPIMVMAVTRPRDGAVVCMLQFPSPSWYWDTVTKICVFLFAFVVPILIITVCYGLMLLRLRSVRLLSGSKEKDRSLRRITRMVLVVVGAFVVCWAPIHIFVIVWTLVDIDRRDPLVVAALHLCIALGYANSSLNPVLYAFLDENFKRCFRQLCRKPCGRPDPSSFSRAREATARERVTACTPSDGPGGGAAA

This assay has as its target Mu-type opioid receptor (Homo sapiens) + Delta-type opioid receptor (Homo sapiens) (UniProt P35372+P41143). Briefly: agonists of MOR-DOR heterodimerization, dose response, counter-screen for MC4R biased agonist project, cell-based, luminescence (AID 602264). As to conditions: cell-based OPRM1-OPRD1 heterodimerization. On the technique in general: Counterscreens check selectivity or assay interference.
For the compound `COc1cc(C(=O)Nc2nnc(-c3sccc3C)s2)cc(OC)c1OC`, the EC50 is > 92.5 µM (inactive).

`CCCCCCCCCCOC(=O)Cn1c(COc2cccc(C)c2)[n+](C)c2ccccc21`: the EC50 was > 64.6 µM (inactive).

In the case of `COc1cccc(-c2cnc3c(NC(C)=O)cc(-c4cc(F)ccc4OC)cn23)c1`, the EC50 was > 92.5 µM (inactive).

Consider `NC(Cc1ccc(C(F)(F)F)cc1)c1csc(Nc2nccc(C(F)(F)F)n2)n1` (stereo not drawn), for which the EC50 is > 92.4 µM (inactive).

Take `N#C/C(=C\c1cn(CCOc2ccccc2)c2ccccc12)C(=O)NCc1ccco1`: the EC50 is > 92.5 µM (inactive).

As to `CC(=O)Nc1cc(-c2cccc(C(=O)N(C)C)c2)cn2c(-c3ccc(F)c(Cl)c3)cnc12`, the EC50 is > 64.6 µM (inactive).

Turning to `Cc1cc(C)c2nc(Nc3nc(-c4ccccc4)cc(=O)[nH]3)nc(C)c2c1`, the EC50 was > 92.5 µM (inactive).

Turning to `COc1ccc(-c2cnc3c(NC(C)=O)cc(-c4cc(F)ccc4OC)cn23)cc1OC`, the EC50 was > 64.6 µM (inactive).

For the compound `CC1CCC(C(C)C)C(OC(=O)C[n+]2cc(-c3ccc(Cl)cc3)n3c2CCCCC3)C1` (stereo not drawn), the EC50 is > 92.5 µM (inactive).

As to `Cc1ccc(Sc2ccc(NC(=O)CCl)cc2)cc1C`, the EC50 result is “inactive”.

Turning to `Cc1cccnc1C(NC(=O)C1CCN(CCOc2ccc(Cl)cc2Cl)CC1)c1ccc(Cl)cc1` (stereo not drawn), the EC50 entry was “inactive”.

With `CCOc1cc(CNCCc2c[nH]c3ccccc23)cc(Cl)c1OCC`, the EC50 was > 92.5 µM (inactive).

Regarding `CC(=O)c1cccc(-c2cnc3c(NC=O)cc(-c4ccc(N(C)C)cc4)cn23)c1`, the EC50 was > 64.6 µM (inactive).

As for `CCN1CCN(Cc2ccc(NC(=O)c3cc(NC(=O)c4cc5cccc(OC)c5o4)cc(OC)c3)cc2C(F)(F)F)CC1`, the EC50 is > 64.6 µM (inactive).

For the compound `CCOCCCN(Cc1ccco1)C(=O)c1cc2c(=O)[nH]c3ccc(C)cc3c2s1`, the EC50 is > 64.6 µM (inactive).

For the compound `COc1ccc(-n2nc(C(=O)NCC(=O)Nc3ccccn3)c3ccccc3c2=O)cc1Cl`, the EC50 is > 64.6 µM (inactive).

For `CC(=O)Nc1cc(-c2ccc(F)cc2)cn2c(-c3ccc(F)c(Cl)c3)cnc12`, the EC50 was > 64.6 µM (inactive).

`Cc1ccc(C(=O)c2coc3c2C(=O)C(=O)c2ccccc2-3)cc1`: the EC50 is > 64.6 µM (inactive).

Take `CC(C)c1ccc(NS(=O)(=O)c2ccc(-n3cccn3)cc2)cc1`: the EC50 was > 92.5 µM (inactive).

As for `CC(=O)Nc1cc(-c2ccccc2N(C)C)cn2c(-c3ccccc3)cnc12`, the EC50 was > 92.4 µM (inactive).

Turning to `Cc1nnnn1/C(=C\c1ccccc1)C(=O)OCC(=O)Nc1ccc(Cl)cc1F`, the EC50 was > 92.5 µM (inactive).

On to `CCOc1ccc(NC(=O)CSc2nc(-c3cccs3)cc(C(F)(F)F)n2)c([N+](=O)[O-])c1`, for which the EC50 is > 64.6 µM (inactive).

Turning to `CC(=O)Nc1cc(-c2ccccc2)cn2c(-c3ccc(F)cc3)cnc12`, the EC50 was > 64.6 µM (inactive).

In the case of `O=C(N/N=C/c1ccc(OCc2ccccc2)cc1)c1cccs1`, the EC50 is > 92.5 µM (inactive).

In the case of `CCCCCCCCCCCCCCCC[n+]1ccc(/C=N/O)cc1`, the EC50 was > 64.6 µM (inactive).

As to `Nc1ccc(C2(c3ccc(N)cc3)c3ccccc3-c3ccccc32)cc1`, the EC50 was > 92.5 µM (inactive).

With `COc1cc(NC(=O)COc2ccccc2[N+](=O)[O-])ccc1NC(=O)c1cccs1`, the EC50 is > 92.5 µM (inactive).

In the case of `O=C(N/N=C/c1c[nH]c2ccccc12)C1CC1(c1ccccc1)c1ccccc1` (stereo not drawn), the EC50 is > 92.5 µM (inactive).

As to `COc1cc2nc(Nc3ccc(C)c(Cl)c3)nc(N)c2cc1OC`, the EC50 was > 92.5 µM (inactive).

Turning to `O=C1OC(c2ccccc2)(c2ccc(O)cc2)c2ccccc21` (stereo not drawn), the EC50 is > 92.5 µM (inactive).

With `CCCOC(=O)c1cccc(Nc2nc(-c3cccnc3)nc3ccccc23)c1`, the EC50 was > 92.6 µM (inactive).

Turning to `CC(=O)Nc1cc(-c2cccc(F)c2)cn2c(-c3ccc(F)cc3)cnc12`, the EC50 is > 92.5 µM (inactive).

In the case of `CC(=O)Nc1cc(-c2cccc(F)c2)cn2c(-c3ccc(F)c(Cl)c3)cnc12`, the EC50 was > 64.6 µM (inactive).

`COc1cccc(CC2(CO)CCCN(Cc3[nH]c4ccc(C)cc4c3C)C2)c1` (stereo not drawn): the EC50 is > 92.5 µM (inactive).

For the compound `CCOC(=O)c1ccc(-c2ccc(/C=C(\C#N)C(=O)NCc3cccs3)o2)cc1`, the EC50 is > 64.6 µM (inactive).

Turning to `Cc1cc(C)c2sc(N(CCCN(C)C)C(=O)c3ccc(Br)s3)nc2c1`, the EC50 is > 92.5 µM (inactive).

As for `O=C(NC(c1ccccc1)c1ccc2ccccc2n1)C1CCN(CCOc2ccc(Cl)cc2Cl)CC1` (stereo not drawn), the EC50 result is “inactive”.

Take `CCN1C(=O)/C(=C2/Sc3ccc(OC)cc3N2C)SC1=Nc1cccc(O)c1`: the EC50 was > 92.5 µM (inactive).

In the case of `COc1ccc(-c2cc(NC=O)c3ncc(-c4ccccc4)n3c2)cc1OC`, the EC50 was > 64.6 µM (inactive).

Regarding `CC(=O)Nc1cc(-c2ccccc2)cn2c(-c3ccc(F)c(Cl)c3)cnc12`, the EC50 was > 92.5 µM (inactive).

For `COc1ccc2nc(NC(=O)CSc3nc4cccnc4n3C)sc2c1`, the EC50 was > 64.6 µM (inactive).

`COc1ccccc1-c1cc(NC(C)=O)c2ncc(-c3cccc(C(C)=O)c3)n2c1`: the EC50 is > 64.6 µM (inactive).

Regarding `Cc1ccc(C2=NN(C(=O)c3cccs3)C(c3ccccc3O)C2)cc1` (stereo not drawn), the EC50 was > 64.6 µM (inactive).

`COc1ccc(CNC(=O)Nc2nc(C(N)Cc3ccc(C(F)(F)F)cc3)cs2)cc1` (stereo not drawn): the EC50 was > 64.6 µM (inactive).

As for `CC(=O)Nc1cc(-c2ccccc2)cn2c(-c3cccc(C(C)=O)c3)cnc12`, the EC50 is > 64.6 µM (inactive).

As to `CCSc1nnc(NC(=O)c2csc3c2CCCC3)s1`, the EC50 was > 92.5 µM (inactive).

`COc1ccc2oc(=O)c(-c3csc(Nc4cccc(O)c4)n3)cc2c1`: the EC50 is > 92.4 µM (inactive).

For `COc1cc(-c2cc(NC=O)c3ncc(-c4ccc(C(C)=O)cc4)n3c2)cc(OC)c1OC`, the EC50 is > 92.5 µM (inactive).

Turning to `CCCCCCCCCCCCCCCC[n+]1cccc(C(=O)N(CC)CC)c1`, the EC50 was > 64.6 µM (inactive).

Regarding `NC(Cc1ccc(Cl)cc1)c1csc(NC(=O)Nc2ccccc2)n1` (stereo not drawn), the EC50 was > 64.6 µM (inactive).

For the compound `COc1ccc(-c2csc(C3=C(O)CN(Cc4ccc(Cl)cc4)C3=N)n2)cc1OC`, the EC50 is > 64.6 µM (inactive).

For the compound `COc1ccc(C(NC(=O)C2CCN(CCOc3ccc(Cl)cc3Cl)CC2)c2cccs2)cc1` (stereo not drawn), the EC50 result was “inactive”.

`CN(C)CCNC(=O)c1cccc(-c2cnc3c(NC=O)cc(-c4cccc(C(F)(F)F)c4)cn23)c1`: the EC50 was > 64.6 µM (inactive).

Regarding `CC(C)c1ccc(NC(=O)CSc2ncccc2C(=O)Oc2cccc([N+](=O)[O-])c2)cc1`, the EC50 was > 92.5 µM (inactive).

`CC(=O)Nc1cc(-c2cccnc2)cn2c(-c3cccc(C(F)(F)F)c3)cnc12`: the EC50 is > 92.5 µM (inactive).

Turning to `Cc1cc(C)c(CN2CCN(CCCn3cnc(C(=O)Nc4ccc(C)c(C)c4)n3)CC2)c(C)c1`, the EC50 was > 92.5 µM (inactive).

Consider `Cc1nc(NC(=O)c2cccc(-c3cc4ccccc4oc3=O)c2)ccc1Br`, for which the EC50 is > 64.6 µM (inactive).

In the case of `COC(=O)c1c(NC(=O)CC2SC(N)=NC2=O)sc2c1CCC(C(C)(C)C)C2` (stereo not drawn), the EC50 is > 92.5 µM (inactive).
